# Source: ChEMBL document CHEMBL2150853 (Eur J Med Chem, 2011)
# Legend:
# [1] = Permeability from apical to basolateral side of in wild type MDCK cells assessed as mass balance at 10 uM after 2 hrs; format: ADME, cell-based, Canis lupus familiaris; conditions: dog, read-out: permeability
# [2] = Antiprion activity against mouse prion protein RML infected mouse ScN2a cells assessed as reduction of PrPSc level by Western blot method; format: cell-based
# [3] = test system: human MDR1; format: ADME, cell-based, Canis lupus familiaris; conditions: dog, MDCK-MDR1; read-out: permeability
# [4] = Cytotoxicity against mouse N2A cells assessed as maximal tolerant concentration; format: cell-based; conditions: read-out: MTD
# [5] = target: Major prion protein (Homo sapiens) (UniProt P04156); experiment: Binding affinity to truncated human PrP 121-231 at 50 uM by surface plasmon resonance method
# [6] = test system: MDCK; format: ADME, cell-based, Canis lupus familiaris; conditions: dog, 2 h, 10 µM
# [7] = test system: MDCK; experiment: Permeability from apical to basolateral side of in P-glycoprotein-mediated MDCK cells over expressing human MDR1 assessed as cell retention at 10 uM after 2 hrs; format: ADME, cell-based, Canis lupus familiaris; conditions: dog
# [8] = test system: MDCK; experiment: Permeability from basolateral to apical side of in wild type MDCK cells assessed as cell retention at 10 uM after 2 hrs; format: ADME, cell-based, Canis lupus familiaris; conditions: dog
# [9] = test system: MDCK; experiment: Permeability from apical to basolateral side of in wild type MDCK cells assessed as adsorption on transwell at 10 uM after 2 hrs; format: ADME, cell-based, Canis lupus familiaris; conditions: dog
# [10] = test system: human MDR1; experiment: Permeability from basolateral to apical side of in MDCK cells overexpressing human MDR1 assessed as mass balance at 10 uM after 2 hrs; format: ADME, cell-based, Canis lupus familiaris; conditions: dog, read-out: permeability
# [11] = test system: ScN2a; experiment: Antiprion activity against mouse prion protein RML infected mouse ScN2a cells assessed as drug level required for more than 99 percent reduction of PrPSc level by Western blot method; format: cell-based
# [12] = test system: N167; experiment: Antiprion activity against mouse prion protein 22L infected mouse N167 cells assessed as drug level required for more than 99 percent reduction of PrPSc level by Western blot method; format: cell-based
# [13] = test system: human MDR1; experiment: in vitro; conditions: dog, MDCK-MDR1
# [14] = test system: N2a #58 F3; experiment: Antiprion activity against human prion protein Fukuoka-1 infected mouse F3 cells assessed as drug level required for more than 99 percent reduction of PrPSc level by Western blot method; format: cell-based
# [15] = test system: human MDR1; format: ADME, cell-based, Canis lupus familiaris; conditions: dog, MDCK-MDR1
# [16] = test system: MDCK; experiment: Permeability from apical to basolateral side of in wild type MDCK cells assessed as cell retention at 10 uM after 2 hrs; format: ADME, cell-based, Canis lupus familiaris; conditions: dog
# [17] = Effective permeability of the compound at pH 7.4 at 30 to 50 uM by PAMPA assay; format: ADME; conditions: read-out: Peff
# [18] = Permeability from basolateral to apical side of in wild type MDCK cells assessed as mass balance at 10 uM after 2 hrs; format: ADME, cell-based, Canis lupus familiaris; conditions: dog, read-out: permeability
# [19] = test system: human MDR1; format: ADME, cell-based, Canis lupus familiaris; conditions: dog, MDCK-MDR1; remark: listed apart in the source
# [20] = Antiprion activity against human prion protein Fukuoka-1 infected mouse F3 cells assessed as reduction of PrPSc level by Western blot method; format: cell-based; conditions: N2a #58 F3
# [21] = test system: MDCK; experiment: Permeability from basolateral to apical side of in P-glycoprotein-mediated MDCK cells over expressing human MDR1 assessed as cell retention at 10 uM after 2 hrs; format: ADME, cell-based, Canis lupus familiaris; conditions: dog
# [22] = in vitro; conditions: dog, MDCK
# [23] = Antiprion activity against mouse prion protein 22L infected mouse N167 cells assessed as reduction of PrPSc level by Western blot method; format: cell-based
# [24] = test system: MDCK; format: ADME, cell-based, Canis lupus familiaris; conditions: dog, 2 h, 10 µM; remark: listed apart in the source
# [25] = test system: MDCK; experiment: Permeability from basolateral to apical side of in wild type MDCK cells assessed as adsorption on transwell at 10 uM after 2 hrs; format: ADME, cell-based, Canis lupus familiaris; conditions: dog
compound,measurement,setting,value
COc1ccc2nc3cc(Cl)ccc3c(Nc3ccc(N4CCN(C)CC4)cc3)c2c1,"recovery at 2 h, 10 µM",[1],11.3%
same,EC50,[2],100 nM
same,"recovery at 2 h, 10 µM",[3],12.6%
same,MNTC,[4],2500 nM
same,RUmax,[5],120%
same,permeability,[6],3.1%
same,permeability,[7],67%
same,permeability,[8],27.5%
same,permeability,[9],11.4%
same,"recovery at 2 h, 10 µM",[10],73%
same,Activity,[11],0.4 µM
same,Activity,[12],1.5 µM
same,"efflux ratio at 2 h, 10 µM",[13],2.4
same,Activity,[14],1.5 µM
same,"Papp A→B at 2 h, 10 µM",[15],0.14 ×10⁻⁶ cm/s
same,permeability,[16],66.4%
same,Papp at up to 50 µM,[17],8.13 ×10⁻⁶ cm/s
same,"recovery at 2 h, 10 µM",[18],75.3%
same,"Papp B→A at 2 h, 10 µM",[19],0.34 ×10⁻⁶ cm/s
same,EC50,[20],680 nM
same,permeability,[21],44.2%
same,"efflux ratio at 2 h, 10 µM",[22],1.2
same,EC50,[23],420 nM
same,permeability,[24],6.1%
same,permeability,[25],3.5%
